Measurements as given in the supplement of paper PMC10307832.

Tests used:
Assay in all cases: relative viability (nuclei count vs DMSO), 5 days (fraction); higher = more cells survive
[1] = compound: CN(C)C/C=C/C(=O)Nc1cc2c(Nc3ccc(F)c(Cl)c3)ncnc2cc1O[C@H]1CCOC1 [Afatinib] + CC(C)C[C@H](NC(=O)[C@H](Cc1ccccc1)NC(=O)c1cnccn1)B(O)O [Bortezomib] (partner 0.002 µM)
Method in brief: (§1)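 The day after seeding in 1536-well plates, lung cancer cell lines were treated by pin tool with a single drug, or with a fixed anchor-drug dose together with five library-drug doses (not always all listed) in √10 steps. After 5 days, a combined fix-and-stain solution (final 0.05% Triton X-100, 1% formaldehyde, 1 ug/ml Hoechst) was added. Nuclei counted on 4× images gave relative viability as treated counts over vehicle counts, reported as the median of duplicate plates.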

[2] = compound: CN(C)C/C=C/C(=O)Nc1cc2c(Nc3ccc(F)c(Cl)c3)ncnc2cc1O[C@H]1CCOC1 [Afatinib] + CC1(C)CCC(c2ccc(Cl)cc2)=C(CN2CCN(c3ccc(C(=O)NS(=O)(=O)c4ccc(N[C@H](CCN5CCOCC5)CSc5ccccc5)c(S(=O)(=O)C(F)(F)F)c4)cc3)CC2)C1 [Navitoclax] (partner 0.5 µM)
Method in brief: as §1

[3] = compound: CN(C)C/C=C/C(=O)Nc1cc2c(Nc3ccc(F)c(Cl)c3)ncnc2cc1O[C@H]1CCOC1 [Afatinib] + Cc1nc(Nc2ncc(C(=O)Nc3c(C)cccc3Cl)s2)cc(N2CCN(CCO)CC2)n1 [Dasatinib] (partner 0.075 µM)
Method in brief: as §1

[4] = compound: CN(C)C/C=C/C(=O)Nc1cc2c(Nc3ccc(F)c(Cl)c3)ncnc2cc1O[C@H]1CCOC1 [Afatinib] + CCNC(=O)c1noc(-c2cc(C(C)C)c(O)cc2O)c1-c1ccc(CN2CCOCC2)cc1 [Luminespib] (partner 0.01 µM)
Method in brief: as §1

Cell Line	relative viability ([1]; first compound 0.005 µM)	relative viability ([1]; first compound 0.01581 µM)	relative viability ([1]; first compound 0.05 µM)	relative viability ([1]; first compound 0.5 µM)	relative viability ([2]; first compound 0.005 µM)	relative viability ([2]; first compound 0.01581 µM)	relative viability ([2]; first compound 0.05 µM)	relative viability ([2]; first compound 0.5 µM)	relative viability ([3]; first compound 0.005 µM)	relative viability ([3]; first compound 0.01581 µM)	relative viability ([3]; first compound 0.05 µM)	relative viability ([3]; first compound 0.1581 µM)	relative viability ([3]; first compound 0.5 µM)	relative viability ([4]; first compound 0.005 µM)	relative viability ([4]; first compound 0.01581 µM)	relative viability ([4]; first compound 0.05 µM)	relative viability ([4]; first compound 0.1581 µM)	relative viability ([4]; first compound 0.5 µM)	relative viability ([1]; first compound 0.1581 µM)	relative viability ([2]; first compound 0.1581 µM)
NCI-H2228	1.19	0.812	0.984	0.901	0.864	0.906	0.865	0.51	0.619	0.56	0.55	0.41	0.634	0.141	0.127	0.136	0.132	0.143		
NCI-H2347	1.06	0.919	0.81	0.728	0.932	0.79	0.873	0.804	0.34	0.318	0.453	0.269	0.288	0.295	0.352	0.555	0.404	0.316	0.865	0.903
NCI-H2405	1	0.953	0.975	1.01	0.857	0.879	0.912	1.07	0.243	0.201	0.207	0.219	0.196	0.578	0.695	0.648	0.388	0.441	0.931	0.715
NCI-H3122	1.05	1.02	1.06	1.04	1.02	0.976	1.05	1.03	0.95	0.778	0.675	0.739	0.553	0.103	0.0816	0.0898	0.0996	0.0859	0.967	0.91
